Reference: patent US20130210794A1, “NANOSTRUCTURED EZETIMIBE COMPOSITIONS, PROCESS FOR THE PREPARATION THEREOF AND PHARMACEUTICAL COMPOSITIONS CONTAINING THEM” (priority 2010, published 2013)

Key:
human plasma proteins = details: cited from earlier work
[1] = cited from earlier work
[2] = cited from earlier work; remark: listed apart in the source
[3] = PAMPA permeability measurement (Example 5); type: in vitro ADME; details: redispersed in distilled water; receiver phosphate buffered saline with 1% sodium lauryl sulphate; UV at 248 nm
Description: Reference Ezetimibe and solid nanostructured Ezetimibe was redispersed in distilled water and permeability was measured across and artificial membrane composed of dodecane with 20% soy lecithin. The sample containing the reference compound was a suspension of crystals visible by the naked eye, while the nanostructured sample was an opalescent colloid solution. The receiver compartment was phosphate buffered saline with 1% sodium lauryl sulphate.

[4] = Solubility by UV-VIS measurement (Example 1); type: physicochemical; details: room temperature, UV-VIS at 248 nm, filtered by 100 nm syringe filter
Description: The solubility of nanostructured Ezetimibe compared to the reference form of the active compound was determined in distilled water and 0.05% SDS solution by UV-VIS measurements (Thermo Genesys 10S spectrophotometer) at 248 nm wavelength and room temperature. The redispersed sample was filtered by 100 nm disposable syringe filter.

| PAMPA permeability [3] | solubility in 0.05% SDS solution ([4]; 0.05% SDS solution) | solubility in distilled water ([4]; distilled water) | SMILES | bound to human plasma proteins (human plasma proteins) | mean peak plasma concentration (Cmax) ([1]; in vivo, po, 10 mg) | tmax ([1]; in vivo, po, 10 mg) | stability ([2]; ambient temperature) | solubility in ethanol, methanol and acetone (descriptive) ([2]; ethanol, methanol, acetone) | solubility in water (descriptive) ([2]; water) | deviation from dose proportionality ([1]; between 5 and 20 mg) | increase of Cmax with food ([1]; consumption of high-fat meals, ZETIA 10-mg tablets) | effect of concomitant food on extent of absorption ([1]; high-fat or non-fat meals, ZETIA 10-mg tablets) | bioavailability (estimated) ([1]; oral) |
| --- | --- | --- | --- | --- | --- | --- | --- | --- | --- | --- | --- | --- | --- |
| – | – | – | O=C(O)[C@H]1O[C@@H](Oc2ccc([C@@H]3[C@@H](CC[C@H](O)c4ccc(F)cc4)C(=O)N3c3ccc(F)cc3)cc2)[C@H](O)[C@@H](O)[C@@H]1O [Ezetimibe-glucuronide] | > 90% | 45 to 71 ng/mL | 1 to 2 h | – | – | – | – | – | – | – |
| under the detection limit | under the detection limit | under the detection limit | O=C1[C@H](CC[C@H](O)c2ccc(F)cc2)[C@@H](c2ccc(O)cc2)N1c1ccc(F)cc1 [Ezetimibe, 1-(4-fluorophenyl)-3(R)-[3-(4-fluorophenyl)-3(S)-hydroxypropyl]-4(S)-(4-hydroxyphenyl)-2-azetidinone] | – | – | – | stable at ambient temperature | freely to very soluble | practically insoluble | no substantial deviation from dose proportionality | 38% | no effect | 35-65% |
